{"source": "patent US20200017496A1", "about": "(priority 2017, published 2020)", "test_in_all_cases": "MIC of compounds alone and combined with antibacterials, broth microdilution (CLSI)", "assay_type_in_all_cases": "cell-based", "key": {"[1]": {"system": "Klebsiella pneumoniae (KPN) isolates", "settings": "for MIC ATB in combination: AF1 @ 4 μg/mL", "method_in_brief": "(§1)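 Inoculum 5·10^5 CFU/mL (final), log phase, ca-MHB; 16-20 h, 35° C, ambient air. MIC = lowest conc. with no visible growth; ATB MIC read at each compound level.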"}, "[2]": {"system": "Citrobacter freundii (CFR) isolates", "method_in_brief": "as §1"}, "[3]": {"system": "Enterobacter cloacae (ECL) isolates", "method_in_brief": "as §1"}}, "note": "“And” between values parts separate entries of the source, which are not always exact repeats. Equal entries are not always repeated. Where two headings read alike, the source gives them in different places.", "data": [{"smiles": "CC1(C)S[C@@H]2[C@H](NC(=O)[C@H](N)c3ccc(O)cc3)C(=O)N2[C@H]1C(=O)O", "note": "[AMX, Amoxicillin]", "values": [{"measurement": "MIC", "setting": "[1]", "result": ">128 µg/mL and 128 µg/mL"}, {"measurement": "MIC ATB in combination", "setting": "[1]; KPN 6299", "result": 256, "unit": "µg/mL"}, {"measurement": "MIC ATB in combination", "setting": "[1]; KPN 131119", "result": 256, "unit": "µg/mL"}, {"measurement": "MIC ATB in combination", "setting": "[1]; KPN 140513", "result": ">512", "unit": "µg/mL"}, {"measurement": "MIC ATB in combination", "setting": "[1]; KPN 190270", "result": 16, "unit": "µg/mL"}, {"measurement": "MIC ATB in combination", "setting": "[1]; KPN 190551", "result": 64, "unit": "µg/mL"}, {"measurement": "MIC ATB in combination", "setting": "[1]; KPN 200047", "result": 16, "unit": "µg/mL"}, {"measurement": "MIC ATB in combination", "setting": "[1]; KPN 200327", "result": 32, "unit": "µg/mL"}, {"measurement": "MIC ATB in combination", "setting": "[1]; KPN 260252", "result": 256, "unit": "µg/mL"}, {"measurement": "MIC ATB in combination", "setting": "[1]; KPN 260376", "result": 32, "unit": "µg/mL"}, {"measurement": "MIC ATB in combination", "setting": "[1]; KPN 270077", "result": 4, "unit": "µg/mL"}, {"measurement": "MIC ATB in combination", "setting": "[1]; KPN 700603", "result": 4, "unit": "µg/mL"}, {"measurement": "MIC ATB in combination", "setting": "[1]; KPN ARA", "result": 256, "unit": "µg/mL"}, {"measurement": "MIC ATB in combination", "setting": "[1]; KPN BAA-1898", "result": 256, "unit": "µg/mL"}, {"measurement": "MIC ATB in combination", "setting": "[1]; KPN LIB", "result": 16, "unit": "µg/mL"}, {"measurement": "MIC ATB in combination", "setting": "[1]; KPN UFR22_O", "result": 64, "unit": "µg/mL"}, {"measurement": "MIC ATB in combination", "setting": "[1]; KPN UFR23", "result": 32, "unit": "µg/mL"}, {"measurement": "MIC ATB in combination", "setting": "[1]; KPN UFR24", "result": 64, "unit": "µg/mL"}, {"measurement": "MIC ATB in combination", "setting": "[1]; KPN UFR25", "result": 512, "unit": "µg/mL"}, {"measurement": "MIC ATB in combination", "setting": "[1]; KPN UFR65", "result": 256, "unit": "µg/mL"}, {"measurement": "MIC ATB in combination", "setting": "[1]; KPN UFR66", "result": 256, "unit": "µg/mL"}, {"measurement": "MIC ATB in combination", "setting": "[1]; KPN UFR67", "result": 256, "unit": "µg/mL"}, {"measurement": "MIC ATB in combination", "setting": "[1]; KPN UFR68", "result": 256, "unit": "µg/mL"}, {"measurement": "MIC ATB in combination", "setting": "[1]; KPN UFR76", "result": ">512", "unit": "µg/mL"}, {"measurement": "MIC ATB in combination", "setting": "[1]; KPN UFR77", "result": 64, "unit": "µg/mL"}, {"measurement": "MIC ATB in combination", "setting": "[1]; KPN UFR78", "result": ">512", "unit": "µg/mL"}, {"measurement": "MIC ATB in combination", "setting": "[1]; KPN UFR79", "result": ">512", "unit": "µg/mL"}, {"measurement": "MIC ATB in combination", "setting": "[1]; KPN UFR81", "result": ">512", "unit": "µg/mL"}, {"measurement": "MIC ATB in combination", "setting": "[1]; KPN UFR215", "result": 64, "unit": "µg/mL"}, {"measurement": "MIC ATB in combination", "setting": "[1]; KPN UFR216", "result": 32, "unit": "µg/mL"}, {"measurement": "MIC ATB in combination", "setting": "[1]; KPN UFR217", "result": 64, "unit": "µg/mL"}, {"measurement": "MIC ATB in combination", "setting": "[1]; KPN UFR220", "result": 512, "unit": "µg/mL"}, {"measurement": "MIC ATB in combination", "setting": "[1]; KPN UFR221", "result": 256, "unit": "µg/mL"}, {"measurement": "MIC ATB in combination", "setting": "[1]; KPN UFR222", "result": ">512", "unit": "µg/mL"}, {"measurement": "MIC ATB in combination", "setting": "[1]; KPN UFR227O", "result": 512, "unit": "µg/mL"}, {"measurement": "MIC", "setting": "[1]; Klebsiella pneumoniae", "result": "> 256", "unit": "µg/mL"}, {"measurement": "MIC", "setting": "[1]; Klebsiella pneumoniae, BAA1898, strain KPN BAA-1898 (TEM-1, SHV-11, SHV-12, KPC-2), ATB alone, read-out: MIC", "result": "> 1020", "unit": "µg/mL"}, {"measurement": "MIC", "setting": "[1]; Klebsiella pneumoniae, BAA1898, strain KPN BAA-1898 (TEM-1, SHV-11, SHV-12, KPC-2), CLA @ 4 μg/ml+ ATB, read-out: MIC", "result": "> 512", "unit": "µg/mL"}, {"measurement": "MIC", "setting": "[1]; Klebsiella pneumoniae, strain KPN 6299 (TEM-1, SHV-11, OXA-163), ATB alone, read-out: MIC", "result": "> 1020", "unit": "µg/mL"}, {"measurement": "MIC", "setting": "[1]; Klebsiella pneumoniae, strain KPN 6299 (TEM-1, SHV-11, OXA-163), CLA @ 4 μg/ml+ ATB, read-out: MIC", "result": "> 512", "unit": "µg/mL"}, {"measurement": "MIC", "setting": "[1]; Klebsiella pneumoniae, strain KPN 131119 (TEM-1, SHV-11, CTX-M-15, OXA-1, OXA-48), CLA @ 4 μg/ml+ ATB, read-out: MIC", "result": "> 512", "unit": "µg/mL"}, {"measurement": "MIC", "setting": "[1]; Klebsiella pneumoniae, strain KPN 200047 (TEM-1, SHV-32, CTX-M-15, OXA-1), CLA @ 4 μg/ml+ ATB, read-out: MIC", "result": 32, "unit": "µg/mL"}, {"measurement": "MIC", "setting": "[1]; Klebsiella pneumoniae, strain KPN 200327 (TEM-1, SHV-1, CTX-M-15, OXA-1), CLA @ 4 μg/ml+ ATB, read-out: MIC", "result": 32, "unit": "µg/mL"}, {"measurement": "MIC", "setting": "[1]; Klebsiella pneumoniae, strain KPN 270077 (TEM-1, SHV-1, CTX-M-15), CLA @ 4 μg/ml+ ATB, read-out: MIC", "result": 32, "unit": "µg/mL"}, {"measurement": "MIC", "setting": "[1]; Klebsiella pneumoniae, strain KPN 700603 (SHV-18, OXA-2), CLA @ 4 μg/ml+ ATB, read-out: MIC", "result": 8, "unit": "µg/mL"}, {"measurement": "MIC", "setting": "[1]; Klebsiella pneumoniae, strain KPN LIB (SHV-11, OXA-48), CLA @ 4 μg/ml+ ATB, read-out: MIC", "result": "> 512", "unit": "µg/mL"}, {"measurement": "MIC", "setting": "[1]; Klebsiella pneumoniae, strain KPN UFR68 (TEM-1, SHV-11, CTX-M-15, KPC-3), ATB alone, read-out: MIC", "result": "> 1020", "unit": "µg/mL"}, {"measurement": "MIC", "setting": "[2]", "result": "128 µg/mL and >256 µg/mL"}, {"measurement": "MIC ATB in combination", "setting": "[2]", "result": 128, "unit": "µg/mL"}, {"measurement": "MIC ATB in combination", "setting": "[2]; CFR UFR11, AF1 @ 4 μg/mL", "result": ">512", "unit": "µg/mL"}, {"measurement": "MIC ATB in combination", "setting": "[2]; CFR UFR83, AF1 @ 4 μg/mL", "result": ">512", "unit": "µg/mL"}, {"measurement": "MIC ATB in combination", "setting": "[2]; CFR UFR146, AF1 @ 4 μg/mL", "result": 256, "unit": "µg/mL"}, {"measurement": "MIC ATB in combination", "setting": "[2]; CFR UFR248, AF1 @ 4 μg/mL", "result": 64, "unit": "µg/mL"}, {"measurement": "MIC ATB in combination", "setting": "[2]; CFR UFR249, AF1 @ 4 μg/mL", "result": 256, "unit": "µg/mL"}, {"measurement": "MIC ATB in combination", "setting": "[2]; CFR UFR250, AF1 @ 4 μg/mL", "result": 32, "unit": "µg/mL"}, {"measurement": "MIC", "setting": "[2]; Citrobacter freundii", "result": "> 128", "unit": "µg/mL"}, {"measurement": "MIC ATB in combination", "setting": "[2]; strain CFR UFR253, antibacterial combined with AF1 @ 4 μg/mL", "result": 4, "unit": "µg/mL"}, {"measurement": "MIC ATB in combination", "setting": "[2]; strain CFR UFR254, antibacterial combined with AF1 @ 4 μg/mL", "result": 4, "unit": "µg/mL"}, {"measurement": "MIC ATB in combination", "setting": "[3]", "result": 128, "unit": "µg/mL"}, {"measurement": "MIC ATB in combination", "setting": "[3]; ECL 190408, AF1 @ 4 μg/mL", "result": 8, "unit": "µg/mL"}, {"measurement": "MIC ATB in combination", "setting": "[3]; ECL 200138, AF1 @ 4 μg/mL", "result": 256, "unit": "µg/mL"}, {"measurement": "MIC ATB in combination", "setting": "[3]; ECL 260033, AF1 @ 4 μg/mL", "result": 256, "unit": "µg/mL"}, {"measurement": "MIC ATB in combination", "setting": "[3]; ECL 260253, AF1 @ 4 μg/mL", "result": 256, "unit": "µg/mL"}, {"measurement": "MIC ATB in combination", "setting": "[3]; ECL 260323, AF1 @ 4 μg/mL", "result": 256, "unit": "µg/mL"}, {"measurement": "MIC ATB in combination", "setting": "[3]; ECL UFR13, AF1 @ 4 μg/mL", "result": 256, "unit": "µg/mL"}, {"measurement": "MIC ATB in combination", "setting": "[3]; ECL UFR70, AF1 @ 4 μg/mL", "result": 64, "unit": "µg/mL"}]}]}
